Among the data in paper PMC6466579, “Non-Mammalian Prdx6 Enzymes (Proteins with 1-Cys Prdx Mechanism) Display PLA2 Activity Similar to the Human Orthologue” (Antioxidants, 2019) are inhibition values, retold here.

One assay deals with T1, AfPrx1 (Aspergillus fumigatus, UniProt Q4WPA3).
T1 construct: gene AFUA_4G08580; cytosolic 1-Cys Prdx
T1 sequence (Q4WPA3 1-213): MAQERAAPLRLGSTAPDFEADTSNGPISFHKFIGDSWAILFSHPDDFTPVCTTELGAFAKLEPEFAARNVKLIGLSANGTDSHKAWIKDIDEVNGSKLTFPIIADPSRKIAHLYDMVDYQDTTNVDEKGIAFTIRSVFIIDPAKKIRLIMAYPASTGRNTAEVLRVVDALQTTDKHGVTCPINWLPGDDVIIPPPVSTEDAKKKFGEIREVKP
As to the kind of experiment: PLA2 assay, [3H]DPPC liposomes, TLC and scintillation. The format is biochemical.

For the next assay, the target named is T2, AfPrxC (Aspergillus fumigatus, UniProt B0Y9D7).
T2 construct: gene AFUB_080670
T2 sequence (B0Y9D7 47-267): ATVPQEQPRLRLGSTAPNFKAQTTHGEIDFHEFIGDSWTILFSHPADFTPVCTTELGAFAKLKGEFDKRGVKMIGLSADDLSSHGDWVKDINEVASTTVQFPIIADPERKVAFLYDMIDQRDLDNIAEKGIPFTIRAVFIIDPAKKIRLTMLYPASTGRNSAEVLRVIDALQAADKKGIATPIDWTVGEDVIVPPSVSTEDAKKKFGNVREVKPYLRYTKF
The assay is described as above. The format is biochemical.

For the compound `CCCCCCCCCCCCCCCCOC[C@H](COCC(F)(F)F)OP(=O)(O)OC` [MJ33, 1-hexadecyl-3-trifluoro-ethylglycero-sn-2-phosphomethanol], the inhibition at 200 µM at AfPrx1 and against AfPrxC was roughly 85% throughout.

In general, inhibition refers to the relative decrease from the control value, in per cent. Read a high inhibition as strong suppression.
